In patent US7968607B2, “Skin pore minimizers and skin elasticity improvers” (Koa Corporation, priority 2000, dated 2011):
Structures can show the parent of a compound that is named as a salt. Where two headings read alike, the source gives them in different places.

Columns and labels:
[1] = system: keratinocytes ("NHEK 6306", Clonetics); test: Contraction of collagen gel seeded with keratinocytes; format: cell-based, human; details: 1 hour after addition, area inside contracted ring, control (gel peeling alone) = 100
Method: • 1) After type I collagen (“Cellmatrix Type I-A”, Nitta Gelatin), “MCDB 153 medium” (Sigma Chemical Co.), 20 mM HEPES (Wako Pure Chemical Industries) and purified water were thoroughly mixed under ice cooling, 500 μL per well were added to a 24-well plate (Falcon), followed by warming at 37° C. in an incubator to effect gelation. Using MCDB 153 medium, 1 mL aliquots of keratinocytes (“NHEK 6306”, Clonetics) were seeded at 2×10^4 cells/cm^2 onto the collagen gels, respectively. Subsequent to incubation for 24 hours, the collagen gels were peeled off with a pipette tip from the culture dishes. Shortly after that, test substances prepared to a concentration as high as 100 times the final concentration were added 10 μL by 10 μL. Upon elapsed time of 1 hour after the addition, the gels were photographed using a “Minolta α707-si Camera” with “50 Macrolens”. Subsequent to development of the pictures, contracted rings were copied onto OHP sheets, the areas inside the contracted rings were determined by image analysis software, “Image-Pro PLUS” (Media Cybanetics, Inc.), and contraction ratios (%) were calculated supposing that the contraction ratio (%) of a control (gel peeling alone) was 100.

[2] = system: human skin fibroblasts (derived from a human fore skin); test: Collagen gel tightening promoting ability (fibroblast-embedded collagen gel, dermis model); format: cell-based; details: for activity at 15 µM / activity at 50 µM: read-out: Average gel volume
Method: Measurement was conducted on the ability to promote the tightening of a fibroblast-embedded collagen gel as a dermis model. The collagen gel was prepared following the procedure reported in a publication [J. Cell Science, 102, 315 (1992) or J. Invest. Dermatol., 93, 792 (1989)]. Described specifically, a solution of HEPES (250 mM) in a 0.05 N sodium hydroxide solution, a 5-fold concentrate of DMEM (“GIBCO DMEM”, low glucose), FCS (2%, Fetal Calf Serum) and purified water were added under ice cooling to a collagen gel solution (product of Nitta Gelatin Inc., “type 1-A” (3.0 mg/mL, pH=3)), and finally, a suspension of human skin fibroblasts (derived from a human fore skin) was added. After the resulting mixture was thoroughly stirred to eliminate bubbles, 600 μL per well was added to 24-well dishes, followed by immediate warming at 37° C. in an incubator to effect gelation. Three to four hours later, 1 mL of serum-free DMEM medium was added to each of the wells, and the gels were separated at peripheries thereof from the corresponding dishes and were brought into a floating state. Eighteen hours after that, the medium was replaced with serum-free DMEM media which contained 100 to 10 μM of test substances, respectively, and incubation was conducted further for 48 hours.
Volume measurement of the gels was conducted by a weight measuring method similar to that reported in the publication [J. Cell Science, 102, 315 (1992)]. Described specifically, subsequent to immobilization with 10% formalin (4° C., 24 hours), the surface tension of water was reduced by the addition of Triton X100 (product of Wako Pure Chemical Industries) (1%), and the weights were measured.
Measurement results of relative volumes for the respective compounds as calculated supposing that the volume of the control was 100% are presented in Table 3.

[3] = system: ear skin pores of New Zealand white rabbits; test: Rabbit ear skin pore size after topical application; format: in vivo; details: 2% solution in ethanol, 8 weeks
Method: Three of New Zealand white rabbits (male, about 2.5 kg) which ear skin pores were conspicuous were used. A 2% solution of Compound 9 (solvent: ethanol) was applied onto the left ear of each rabbit, and the solvent was applied onto the right ear of the rabbit as a control site, each on the inner side of the ala, twice a day, 150 μL each time.
Upon elapsed time of 8 weeks after the initiation of the application, the skin was collected, and the size of skin pores was measured by image analysis. Described specifically, each rabbit was sacrificed and then, his ears were collected. A scalpel was inserted into each ear sample around the applied site, and the skin was peeled off above the cartilage. At that time, care was exercised to avoid stretching of the skin. The skin was spread over a cork board and then, subjected to biopsy with a punch of 6 mm in diameter to collect the skin from six (6) locations on each ear. The collection was conducted such that skin samples were obtained from the same locations on both the left and right ears. […] On the image, the areas of the individual skin pores were measured, so that the skin pore area on each punched skin sample was calculated. An average of the skin pore areas on the six punched skin samples was recorded as the size of skin pores on the corresponding ear sample of the corresponding rabbit.

[4] = 15 μM, 48 hours, relative volume, control = 100%
[5] = 50 μM, 48 hours, relative volume, control = 100%
[6] = Homo sapiens, Skin fibroblast, 48 h
[7] = Homo sapiens, Skin fibroblast, 15 μM, 48 hours, relative volume, control = 100%
[8] = Homo sapiens, Skin fibroblast, 50 μM, 48 hours, relative volume, control = 100%

1-(2-decyltetradecyl)glycerol-3-phosphate monoarginine salt [Compound 41]
Contraction ratio (%) ([1]; 10 μM): 87.3%

1-(2-dodecylhexadecyl)-glycerol-3-phosphate monoarginine salt [Compound 42]
Contraction ratio (%) ([1]; 10 μM): 87.7%

1-(2-heptylundecyl)-glycerol-3-phosphate monoarginine salt [Compound 32]
Contraction ratio (%) ([1]; 10 μM): 52.2%
Average gel volume [2, 4]: 92%
Average gel volume [2, 5]: 75%

1-(2-hexyldecyl)-glycerol-3-phosphate monoarginine salt [Compound 33]
Contraction ratio (%) ([1]; 10 μM): 63.4%

1-(2-octyldodecyl)-glycerol-3-phosphate monoarginine salt [Compound 34]
Contraction ratio (%) ([1]; 10 μM): 67.3%

1-[2-(1,3,3-trimethylbutyl)-5,7,7-trimethyloctyl]-glycerol-3-phosphate monoarginine salt [Compound 35]
Contraction ratio (%) ([1]; 10 μM): 66.9%

1-dodecylglycerol-3-phosphate monoarginine salt [Compound 36]
Contraction ratio (%) ([1]; 10 μM): 71.3%

1-dodecylpropanediol-3-phosphate disodium salt [Compound 26]
Contraction ratio (%) ([1]; 1 μM): 73.5%

1-hexadecylglycerol-3-phosphate monoarginine salt [Compound 38]
Contraction ratio (%) ([1]; 10 μM): 81.4%

1-isostearylglycerol-3-phosphate monoarginine salt [Compound 31-A]
Contraction ratio (%) ([1]; 10 μM): 56.6%
Average gel volume [2, 4]: 94%
Average gel volume [2, 5]: 79%

1-isostearylglycerol-3-phosphate monoarginine salt [Compound 31-B]
Contraction ratio (%) ([1]; 10 μM): 56.7%

1-octadecylglycerol-3-phosphate monoarginine salt [Compound 39]
Contraction ratio (%) ([1]; 10 μM): 70.2%

1-oleylglycerol-3-phosphate monoarginine salt [Compound 40]
Contraction ratio (%) ([1]; 10 μM): 63.0%

1-tetradecylglycerol-3-phosphate monoarginine salt [Compound 37]
Contraction ratio (%) ([1]; 10 μM): 63.3%

CCCCCCCCCCCCCCCCCCOCC(O)COS(=O)(=O)O (centres unmarked) [Compound 2, 1-octadecylglycerol-3-sulfate sodium salt]
activity at 10 µM ([2]; Homo sapiens, Skin fibroblast, 10 μM, 48 hours, relative volume, control = 100%): 97%
activity at 30 µM ([2]; Homo sapiens, Skin fibroblast, 30 μM, 48 hours, relative volume, control = 100%): 92%

CCCCCCCCCCCCOCC(O)COP(=O)(O)O (centres unmarked) [Compound 5, 1-dodecylglycerol-3-phosphate disodium salt]
activity at 15 µM [2, 6]: 94%
activity at 50 µM [2, 6]: 83%

CCCCCCCCCCCCCCOCC(O)COP(=O)(O)O (centres unmarked) [Compound 6, 1-tetradecylglycerol-3-phosphate disodium salt]
activity at 15 µM [2, 7]: 91%
activity at 50 µM [2, 8]: 88%

CCCCCCCCCCCCCCCCOCC(O)COP(=O)(O)O (centres unmarked) [Compound 7, 1-hexadecylglycerol-3-phosphate disodium salt]
activity at 15 µM [2, 7]: 94%
activity at 50 µM [2, 8]: 79%

CCCCCCCCCCCCCCCCCCOCC(O)COP(=O)([O-])[O-].[Na+].[Na+] (centres unmarked) [Compound 8, 1-octadecylglycerol-3-phosphate disodium salt]
Contraction ratio (%) ([1]; 50 μM): 77.0%
activity at 15 µM [2, 6]: 93%
activity at 50 µM [2, 6]: 77%

CC(C)CCCCCCCCCCCCCCCOCC(O)COP(=O)([O-])[O-].[Na+].[Na+] (centres unmarked) [Compound 9, 1-isostearylglycerol-3-phosphate disodium salt]
Contraction ratio (%) ([1]; 50 μM): 62.3%
skin pore area ([3]; 150 μL twice a day on ear, control sites 0.022 mm^2): 0.015 mm^2
smaller in skin pore area than the control sites ([3]; twice a day, versus solvent-applied ear): about 30%

CCCCCCCCCCCCO[C@@H]1O[C@H](COS(=O)(=O)[O-])[C@@H](O)[C@H](O)[C@H]1O.[Na+] [Compound 14, 1-β-O-dodecylglucopyranoside-6-sulfate sodium salt]
Contraction ratio (%) ([1]; 50 μM): 90.0%

CCCCCCCCCCCCCCO[C@H]1O[C@H](COS(=O)(=O)[O-])[C@H](O)[C@H](O)[C@H]1O.[Na+] [Compound 23, 1-α-O-tetradecylgalactopyranoside-6-sulfate sodium salt]
Contraction ratio (%) ([1]; 10 μM): 60.7%

CCCCCCCCCCCCCCO[C@@H]1O[C@H](COS(=O)(=O)[O-])[C@H](O)[C@H](O)[C@H]1O.[Na+] [Compound 24, 1-β-O-tetradecylgalactopyranoside-6-sulfate sodium salt]
Contraction ratio (%) ([1]; 10 μM): 84.9%

CCCCCCCCCCCCOCCCOS(=O)(=O)[O-].[Na+] [Compound 25, 1-dodecylpropanediol-3-sulfate sodium salt]
Contraction ratio (%) ([1]; 10 μM): 88.0%

CCCCCCCCCC(CCCCCCC)COCC(O)COP(=O)([O-])[O-].[Na+].[Na+] (centres unmarked) [Compound 28, 1-(2-heptylundecyl)glycerol-3-phosphate disodium salt]
Contraction ratio (%) ([1]; 10 μM): 48.3%

CC(C)CCCCCCCCCCCCCCCC(O)[C@@H](O)[C@@H](O)[C@H](O)[C@@H](CO)OP(=O)([O-])[O-].[Na+].[Na+] (some centres unmarked) [Compound 29, 1-isostearylmannitol-5-phosphate disodium salt]
Contraction ratio (%) ([1]; 10 μM): 53.3%

CC(C)CCCCCCCCCCCCCCCC(O)[C@@H](O)[C@@H](O)[C@H](O)[C@@H](CO)OS(=O)(=O)[O-].[Na+] (some centres unmarked) [Compound 30, 1-isostearylmannitol-5-sulfate sodium salt]
Contraction ratio (%) ([1]; 10 μM): 56.8%

dodecylglucopyranosidephosphate disodium salt mixture [Compound 27]
Contraction ratio (%) ([1]; 10 μM): 67.0%

octylglucopyranosidesulfate sodium salt mixture [Compound 18]
Contraction ratio (%) ([1]; 50 μM): 90.1%
